Source: patent US9718811B2, “(S)-enantiomer of mepazine” (Helmholtz Zentrum München—Deutsches Forschungszentrum für …, priority 2013, dated 2017)
“Also recorded” adds a separate entry of the source.

Columns and labels:
[1] = molecular target: T1, human MALT1 (L339-R719) (Homo sapiens, UniProt Q9UDY8); assay: Tryptophan fluorescence quenching assay; conditions: monomeric MALT1 (L339-R719), quenching of W580, 20° C.; FIG. 2a/b; read-out: binding affinity KD
T1 construct: human MALT1 (L339-R719) was used; only implied by the Ni-NTA purification; made in house; host or cells: Escherichia coli Rosetta (DE3)
T1 sequence (Q9UDY8 339-719): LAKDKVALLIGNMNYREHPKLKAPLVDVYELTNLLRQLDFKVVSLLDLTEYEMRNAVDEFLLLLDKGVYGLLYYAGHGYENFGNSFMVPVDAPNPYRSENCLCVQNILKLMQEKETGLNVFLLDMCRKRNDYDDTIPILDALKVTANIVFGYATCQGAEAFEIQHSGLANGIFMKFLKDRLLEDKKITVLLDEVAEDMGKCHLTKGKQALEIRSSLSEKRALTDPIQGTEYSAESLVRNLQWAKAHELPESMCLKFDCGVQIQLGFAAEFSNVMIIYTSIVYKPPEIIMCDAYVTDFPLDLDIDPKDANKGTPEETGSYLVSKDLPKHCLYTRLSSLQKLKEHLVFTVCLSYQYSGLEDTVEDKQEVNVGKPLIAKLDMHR
Procedure: For crystallization and tryptophan fluorescence quenching human MALT1 (L339-R719) was used.
Fluorescence quenching of tryptophan W580 was measured with the fluorescence spectrometer (FluoroMax-P, HORIBA Jobin Yvon) at an extinction wavelength of 285 nm and an emission wavelength of 329 nm. The measurement was performed by 2 μl titration steps of 400 μM, 800 μM, 4 mM, 8 mM thioridazine and mepazine stock solutions in H2O against 0.5 μM monomeric MALT1 (L339-R719) in 1.6 ml assay buffer (5 mM Hepes pH 7.0, 300 mM NaCl) at 20° C. The quenching assay of thioridazine and mepazine enantiomers was performed equally to racemates measurements.
For this assay advantage was taken from the fact that W580 is the only tryptophan residue in the MALT1Casp-Ig3 construct and is in close proximity to the bound tricyclic moiety of the phenothiazine derivatives.

[2] = molecular target: T2, GST-MALT1325-760 (Homo sapiens, UniProt Q9UDY8); assay: MALT1 paracaspase activity (fluorogenic cleavage) assay
T2 sequence (Q9UDY8 325-760 limits assumed): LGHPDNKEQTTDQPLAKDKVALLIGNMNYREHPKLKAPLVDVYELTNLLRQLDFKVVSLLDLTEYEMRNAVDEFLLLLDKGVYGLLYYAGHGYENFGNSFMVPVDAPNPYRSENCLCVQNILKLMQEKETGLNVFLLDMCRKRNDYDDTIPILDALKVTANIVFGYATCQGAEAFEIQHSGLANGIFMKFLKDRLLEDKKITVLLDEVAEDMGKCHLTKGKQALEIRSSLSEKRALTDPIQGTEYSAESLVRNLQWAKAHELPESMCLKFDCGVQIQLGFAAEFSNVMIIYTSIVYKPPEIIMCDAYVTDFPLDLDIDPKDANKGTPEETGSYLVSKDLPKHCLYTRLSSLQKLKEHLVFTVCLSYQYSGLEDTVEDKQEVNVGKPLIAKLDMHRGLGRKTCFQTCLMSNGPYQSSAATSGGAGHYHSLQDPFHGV

[3] = test system: ABC DLBCL cell-line OCI-Ly10; assay: DLBCL xenograft model, OCI-Ly10 tumor; assay type: in vivo, mice (NSG); conditions: 6 or 12 mg/kg IP once daily, started 13 days after transplantation
Procedure: (§1) Tumors were engrafted in 6- to 8-week-old female NOD.Cg-Prkdc^scid I12rg^tm1Wj1/SzJ (NSG) mice by subcutaneous injection of 4×10^6 tumor cells (OCI-Ly10 or Su-DHL-6) resuspended in matrigel (BD). Both tumors were engrafted simultaneously on opposite flanks of individual mice, with four mice for each treatment group. […] A daily application of 150 or 300 μg of compound per animal (˜25 g) was used, corresponding to approximately 6 or 12 mg/kg, respectively. The tumor size was measured every other day after visual appearance using a caliper and calculated as square millimeters (length×width). Mice were sacrificed when the tumors were above 250 mm^2 and statistical data was analyzed with a two-way ANOVA test.
(§2) In the DLBCL xenograft model NSG mice were subcutaneously injected with the MALT1-dependent ABC DLBCL cell line OCI-Ly10 and the MALT1-independent GCB DLBCL cell-line Su-DHL6 in opposing flanks of individual mice.

[4] = test system: GCB DLBCL cell-line Su-DHL-6; assay: DLBCL xenograft model, Su-DHL-6 control tumor; assay type: in vivo, mice (NSG); conditions: 6 or 12 mg/kg IP once daily, started 13 days after transplantation
Procedure: as §1, §2

[5] = Chronic progressive EAE (experimental allergic encephalomyelitis) model; assay type: in vivo, C57Bl/6 mice
Procedure: For the EAE model first 1 mg/ml MOG35-55 peptides (MOG: myelin/oligodendrocyte glycoprotein; accession no. AAF74786) were emulsified 1:1 in Complete Freund's Adjuvant (CFA, incl. 5 mg/ml heat-killed M. tuberculum H37RA). On day one female C57Bl/6 mice (8-10 weeks old) were subcutaneously treated with 0.1 ml of MOG/CFA (0.1 mg MOG/0.25 mg CFA per mouse) in both flanks. In addition 0.2 ml pertussis toxin ([…]) was intraperitoneally injected immediately after (200 ng per mouse), followed by a second injection the day after. […] The clinical score of the mice was determined according to the following parameters: Score 0=no obvious signs of motor dysfunction in mice compared to non-immunized control; 0.5—distal tail limpness; 1=limp or floppy tail; 2=limp tail and weakness in hind legs; 3=limp tail and complete paralysis of hind legs OR limp tail with paralysis of one front and one hind leg; 4=limp tail, complete hind leg and partial front leg paralysis; 5=complete hind and complete front leg paralysis, no movement around cage OR mouse is spontaneously rolling in cage OR mouse found dead due to paralysis.
At the end of the study mice were euthanized and blood serum and also the brain and the spinal cord was collected for a histopathology analysis. Here foci of inflammatory cell infiltrate (at least 50 μm) into the spinal cord were counted and scored using the following criteria: 0=normal; 0.5 very minimal; 1=minimal, 2-4 generally less than 100 μm width/length; 2=mild, 5-7 small discreet foci; 3=moderate, 8-10 small plus larger coalescing areas; 4=marked, 11-13 small plus larger coalescing areas; 5=severe, often multiple coalescing >13. Percent area of white matter that bad demyelination, edema, dilated axons was estimated and used to determine a score using the following criteria: 0=normal; 1=minimal, 1-5% of total are affected; 2=mild, 5-25% of total area affected; 3=moderate, 26-50% of total area affected; 4=marked, 51-75% of total area affected; 5=>75% of total area affected.

[6] = CIA (collagen induced arthritis) model; assay type: in vivo, DBA1/J mice; conditions: paw histopathology
[7] = Racemization check by chiral HPLC; assay type: physicochemical
Procedure: Enantiomeric purity of the thioridazine and mepazine enantiomers was determined by comparison to commercially available racemates using a ChiralPak IA 250×4.6 mm (L×I.D.) […] tris(3,5-dimethylphenylcarbamate) column. For thioridazine an isocratic gradient of 1% ethanol in hexane containing 0.1% diethylamine modifier was used. In the case of mepazine an isocratic gradient of 1% isopropanol in hexane containing 0.1% diethylamine modifier was used. Both were run at 1 ml/min.
(S)-Mepazine provided a single peak by Chiral HPLC under conditions in which the individual enantiomers are resolved.

[8] = IC50 (MALT1 cleavage assay), wt GST-MALT1325-760, Ac-LRSR-AMC substrate, FIG. 2c/d
[9] = IC50 on recombinant MALT1 (fluorogenic MALT1 cleavage assay), FIG. 3a/b
[10] = IP 8 mg/kg twice daily, histopathology, 8 mg/kg

Structure (SMILES) | Kd [1] [µM] | IC50 [2, 8] [µM] | IC50 [2, 9] [µM] | growth of the ABC DLBCL (OCI-Ly10) tumor [3] | growth of the GCB DLBCL (Su-DHL-6) control tumor [4] | EAE induced weight loss ([5]; IP 8 mg/kg twice daily) | EAE severity (clinical score) ([5]; IP 8 mg/kg twice daily (16 mg/kg), started at clinical score of around 1) | demyelination in the spinal cord [5, 10] | inflammatory foci formation in the spinal cord [5, 10] | CIA-related inflammation [6] | bone resorption [6] | cartilage damage [6] | pannus formation [6] | racemization on standing or in solution [7]
CSc1ccc2c(c1)N(CCC1CCCCN1C)c1ccccc1S2 (single isomer, unassigned) [(R)-thioridazine] | 23 ± 0.6 | 5 ± 1.5 | 4.99 ± 1.52 |  |  |  |  |  |  |  |  |  |  | 
CN1CCC[C@H](CN2c3ccccc3Sc3ccccc32)C1 [(S)-mepazine, 10-{[(3S)-1-methylpiperidin-3-yl]methyl}-10H-phenothiazine] |  |  |  | selective growth reduction | not affected | reduced EAE induced weight loss | reduction of EAE severity | reduced; also recorded: inhibition | reduced; also recorded: inhibition | strong reduction; also recorded: decrease | strong reduction; also recorded: decrease | strong reduction; also recorded: decrease | strong reduction; also recorded: decrease | No racemization
CSc1ccc2c(c1)N(CCC1CCCCN1C)c1ccccc1S2 (single isomer, unassigned) [(S)-thioridazine] | 21.3 ± 0.5 | 4.8 ± 0.9 | 4.83 ± 0.88 |  |  |  |  |  |  |  |  |  |  | 
